Positions count from the first letter of the chain named.
Tests used:
[1] = system: ELA processing and secretion; experiment: Xenopus secretion assay of human ELA; assay type: cell-based, Xenopus laevis; details: increasing amounts of inhibitor
Method: ZFNs were purchased from Sigma-Aldrich. […] of mRNAs encoding the ZFN pair were injected into 1-cell stage embryos. ZFN binding sites within exon 1 are as follows: 5′_[…]_3′ (SEQ ID NO: 133) and 5′_[…] 3′ (SEQ 1D NO: 134). Sequencing primers flanking the mutation sites are: forward 5′_[…]_3′ (SEQ ID NO: 135), reverse 5′_[…] 3′ (SEQ ID NO: 136). For ela overexpression, 200 pg of SP6-transcribed zebrafish ela capped mRNA (Applied Biosystems) was injected into 1-cell stage zebrafish embryos. Translation blocking MOs used for aplnra and aplnrb have been described previously (Scott et al., 2007; Zeng et al., 2007) and were purchased from Gene tools (Oregon, USA). Embryos were injected at 1-cell stage with a combination of 1 ng of aplnra MO and 0.5 ng of apinrb MO (Zeng et al., 2007). Information on probes used for q-PCR and WISH can be found in Tables E1 and E2. Zebrafish embryos at 100% epiboly were dechorionated and processed for western blotting as previously described (Link et al., 2006). For the Xenopus secretion assay, 16 ng of SP6-transcribed human ELA capped mRNA (Applied Biosystems) was injected into each cell of 4-cell stage embryos. At stage 8, embryos were dechorionated and dissociated in CMFM medium with 5 mM EDTA. […]

hESCs [2] = experiment: survival of hESCs after single-cell dissociation (anoikis); assay type: cell-based, human; details: with or without Y-27632
Method: (§1) hESCs were dissociated into single cells using Accutase (Stem Cell Technologies) and plated in the presence of 10 μM Y-27632 (ROCK inhibitor) for 12 hours (Watanabe et al., 2007).

hESCs [3] = experiment: stress-induced apoptosis of hESCs by ActinomycinD; assay type: cell-based, human
hESCs [4] = experiment: protein synthesis by incorporation of fluorescently-labeled amino acids; assay type: cell-based, human
hESCs [5] = experiment: stress-induced apoptosis of hESCs by ionizing radiation; assay type: cell-based, human
hESCs [6] = experiment: stress-induced apoptosis of hESCs by ActinomycinD; assay type: cell-based, human; details: for resistance or sensitivity to ActinomycinD: nanomolar concentrations of ActinomycinD
Method: To induce apoptosis, hESCs were treated with the indicated doses of ActinomycinD (Sigma) or ionizing radiation followed by Aqueous One Cell Titer (Promega) or CASPASE GLO3/7 (Promega) assays 12 hours post-treatment.

hESCs [7] = experiment: directed endoderm differentiation of hESCs, SOX17+ cell count; assay type: cell-based, human
Method: Shef4TetR5-shELA and Shef4TetR5-shβ2M cells were cultured in the presence (shELA and shβ2M respectively) or absence (Control) of 20 ng/ml doxycycline for 1 passage (4 days) and dissociated with Accutase. […] 24 hours later, the media was changed to Endo differentiation media 1 [RPMI 1640 (Gibco), 1× B-27 supplement (Invitrogen), 50 ng/ml of Activin A (R&D Systems), 25 ng/ml BMP4 (R&D Systems) and 50 ng/ml bFGF (Invitrogen)] for 3 days. On day 3, the media was changed to Endo differentiation media 2 (RPMI 1640, B27, 50 ng/ml Activin) for 2 more days of culture. Rescue experiments were performed by adding 2.5 uM of ELA peptide to Shef4TetR5-shELA concurrently with doxycycline up to day 3, when the ELA peptide is no longer necessary as judged by downregulation of endogenous ELA.
On day 5, cells were fixed with 4% paraformaldehyde and stained with α SOX17 (AF1924, R&D Systems) and DAPI. For each well, three different randomly selected fields were imaged and the number of nuclei staining positive of SOXI 7 and DAPI were counted using a custom macro in ImageJ. A minimum of two wells per condition was used for each experiment, and a minimum of two independent experiments were performed to generate the results.

[8] = teratoma analysis after subcutaneous injection of hESCs; assay type: in vivo, SCID mice; details: 10 million cells subcutaneously, day 60
Method: Shef4TetR5-shELA cells were cultured in the presence (shELA) or absence (Control) of 20 ng/ml doxycycline for 3 passages (4 days/passage). Cells were harvested with Accutase (Stemcell Technologies) and resuspended in 1 part Matrigel to 2 parts mTSERL. 10 million cells in 200 μl were injected subcutaneously into the right hind paunches of SCID mice. shELA-injected mice were fed doxycycline (20 μg/ml) for 3 weeks following injection. Mice were sacrificed 60 days post-injection for tumor analysis.

hESCs [9] = experiment: qPCR of mesendodermal markers in hESCs; assay type: cell-based, human
Method: After the indicated time periods, embryoid bodies were harvested and RNA extracted using RNeasy kit ([…]). qPCR reactions were carried out using either Universal FastSlart SYBR Green Mastermix (Roche) or using the Universal Probe Library system (Roche) in tandem with Taqman Fast Mastermix (Invitrogen). Primer sequences can be found in Table E1.

hESCs [10] = experiment: pluripotency markers and colony morphology of knockdown hESCs; assay type: cell-based, human; details: prolonged depletion
Method: To generate stable inducible knockdown of ELA in hESCs, the sequence […] (SEQ ID NO: 132) targeting the 3′UTR of ELA was cloned into pSUPERIOR (Oliogoengine) and nulcleofected (Lonza) into Shef4TetR5 hESCs (Zafarana et al., 2009). Neomycin-resistant cells were clonally expanded and assayed for doxycycline (20 ng/ml)-inducible knockdown. Data from one representative clone (ShefTetR5 shELA) are shown in this paper. Shef4TetR5 shβ2M were derived as previously described (Zafarana et al., 2009). Unless otherwise stated, ELA knockdown was induced on Day −4 with 20 ng/ml doxycycline to generate shELA cells.

hESCs [11] = experiment: xCELLigence real time growth assay, cell counts and colony size of hESCs; assay type: cell-based, human
Method: Feeder-free hESCs were cultured in clumps in mTSER1 (Stem Cell Technologies) on Matrigel (BD 354277).
as §1
For xCELLigence real time growth assays, 4000 cells were plated per well of an E-plate (ACEA Biosciences) with media changes every 48 hours.
Recombinant ELA was added at 2.5 uM (or 10 μg/ml). Cell cycle studies were performed with Click-iT EDU staining kit (Invitrogen) and by performing a double thymidine block (2.5 mM thymidine; 16 hour block, 8 hour release, 16 hour block) followed by DAPI staining for DNA content at the indicated times following release.

PI3K/AKT pathway = experiment: signaling pathway assay in starved hESCs pulsed with peptide (SDS-PAGE, western); assay type: cell-based, human; details: 5 uM peptide after 2-hour starvation
Method: To assay the signaling pathway activated by ELA, hESCs were dissociated and plated in mTSER1 for 48 hours, followed by a 2-hour starvation in DMEM/F12. Synthetically produced ELA or ELA^RR>GG peptides, dialyzed against PBS to remove any residual synthesis buffers, were added at a final concentration of 5 uM (or as indicate(D) for the indicated period of time. Where applicable, PI3K inhibitors LY294002 (5 uM) and Wortmannin (1 uM) were added 30 minutes before pulsing with ELA peptides. Cells were lysed with PhosphoSafe™ (Millipore) for SDS-PAGE.

ELA = molecular target: T1, ELA (Homo sapiens, UniProt P0DMC3); experiment: extracellular neutralizing assay with affinity purified anti-ELA antibodies in hESC culture; assay type: cell-based; details: peptide added with α N antibodies
T1 construct: ELA is an endogenous secreted peptide that is essential for the survival and self-renewal of hESCs; endogenous in cells; host or cells: hESCs (Shef4 / Shef4TetR5)
T1 sequence (P0DMC3 23-54): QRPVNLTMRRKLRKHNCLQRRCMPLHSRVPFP

hESCs [12] = experiment: insulin replacement assay in hESCs; assay type: cell-based, human; details: SHEF4 and HESC3 hESCs, 24 hours of growth without INSULIN
Method: For insulin replacement assays, SHEF4 or HESC3 hESCs were cultured in TSER-E5 (Stem Cell Technologies) supplemented with TGF-β (5 ng/ml, R&D Systems) and bFGF (100 ng/ml, Invitrogen) with and without INSULIN (10 ug/ml, SIGMA).

hESCs [13] = assay type: cell-based, human; details: data not shown
aplnrb^grinch (W90L) = molecular target: T2, aplnrb^grinch (W90L) (Danio rerio, UniProt A0T2N3, W90L); experiment: AP-ELA binding assay, 293T cells overexpressing receptor; details: 293T overexpression
T2 sequence (A0T2N3 1-359 W90L): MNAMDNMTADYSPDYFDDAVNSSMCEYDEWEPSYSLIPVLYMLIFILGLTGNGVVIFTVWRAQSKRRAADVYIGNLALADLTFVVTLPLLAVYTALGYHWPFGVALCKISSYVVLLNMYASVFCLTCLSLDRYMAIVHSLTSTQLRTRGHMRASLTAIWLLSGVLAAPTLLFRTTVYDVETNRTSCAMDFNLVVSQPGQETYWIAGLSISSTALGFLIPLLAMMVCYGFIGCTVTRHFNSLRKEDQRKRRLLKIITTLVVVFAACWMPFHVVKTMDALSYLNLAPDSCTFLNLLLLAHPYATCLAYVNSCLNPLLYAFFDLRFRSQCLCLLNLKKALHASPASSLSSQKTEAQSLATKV

zebrafish aplnra = molecular target: T3, zebrafish aplnra (Danio rerio, UniProt Q7SZP9); experiment: as above; details: HEK293T overexpression
T3 sequence (Q7SZP9 1-362): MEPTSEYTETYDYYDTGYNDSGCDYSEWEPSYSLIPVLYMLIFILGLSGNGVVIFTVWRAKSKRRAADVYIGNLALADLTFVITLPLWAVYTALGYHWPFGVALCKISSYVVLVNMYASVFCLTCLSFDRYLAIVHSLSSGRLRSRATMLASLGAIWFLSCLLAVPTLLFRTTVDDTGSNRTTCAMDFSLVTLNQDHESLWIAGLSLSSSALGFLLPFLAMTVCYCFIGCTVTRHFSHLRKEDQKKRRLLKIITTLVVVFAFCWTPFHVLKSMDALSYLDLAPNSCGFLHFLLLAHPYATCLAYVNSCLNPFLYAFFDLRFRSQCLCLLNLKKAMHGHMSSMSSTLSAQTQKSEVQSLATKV

zebrafish aplnrb = molecular target: T4, zebrafish aplnrb (Danio rerio, UniProt A0T2N3); experiment: as above; details: HEK293T overexpression
T4 sequence (A0T2N3 1-359): T2 sequence (A0T2N3 1-359 W90L) with L90W

hESCs [14] = experiment: AP-ELA cell surface binding assay on hESCs; parameters: species or system human; details: undifferentiated hESCs

C[C@H]1CCC/C=C/[C@@H]2C[C@H](O)C[C@H]2[C@H](O)/C=C/C(=O)O1 [Brefeldin A]
ELA processing and secretion [1]: able to block ELA processing and secretion

C[C@@H](N)[C@H]1CC[C@H](C(=O)Nc2ccncc2)CC1 [ROCK inhibitor, Y-27632, reference compound]
survival following dissociation (anoikis) (hESCs [2]): protects against anoikis

GTGATTCTCGTGCCTCAAC (expressed or natural sequence) [shELA, doxycycline-inducible shRNA targeting the 3′UTR of ELA in Shef4TetR5 hESCs]
levels of MCL-1 (hESCs [3]): lower levels | BAX localisation (hESCs [3]; mitochondria versus cytoplasm): higher levels of BAX in the mitochondria | protein synthesis (hESCs [4]): reduced protein synthesis | survival following dissociation (anoikis) (hESCs [2]): do not survive single-cell dissociation | sensitivity to gamma irradiation relative to control (hESCs [5]): twice as sensitive | activated CASPASE 3 after irradiation (hESCs [5]; 3 hours after 1 Gray of γ irradiation): higher levels of activated CASPASE 3 | activated CASPASE3/7 and CASPASE 9 after ActinomycinD (hESCs [6]): increased levels of activated CASPASE3/7 | resistance or sensitivity to ActinomycinD (hESCs [6]): more sensitive compared to control | reduction over control in the number of SOX17+ cells (hESCs [7]; 5 days directed differentiation, FIG. 6F): 45% | reduction of SOX17 expression (hESCs [7]; directed differentiation, control, shELA and shβ2M, FIG. 13C): 35% | teratoma formation [8]: did not form teratomas | expression of mesendodermal genes GATA6, GATA4, FOXA2, EOMES and BRA (hESCs [9]): conversely downregulated | pluripotency markers POU5F1, NANOG, SSEA3 and TRA-1-60 (hESCs [10]): downregulation of pluripotency markers | growth rates of knockdown hESCs seeded as single cells (hESCs [11]; real-time cell index, compared to control and shβ2M hESCs): markedly reduced growth rates | colony size of knockdown hESCs (hESCs [11]; relative to shβ2M hESCs): less than half the size

ELA^RR>GG: doubly mutated ELA mutant peptide (R31G, R32G), non-signaling (QRPVNLTMGGKLRKHNCLQRRCMPLHSRVPFP)
phosphorylation of AKT at serine 473 and PRAS40 at threonine 246 (PI3K/AKT pathway): not observed | competition of the neutralizing activity of the antibody by peptide (ELA): competed out | resistance or sensitivity to ActinomycinD (hESCs [6]): no protective effect | rescue in cell viability in the absence of INSULIN (hESCs [12]): exerted no effects | growth of hESCs relative to untreated cells (hESCs [11]; cell counts, colony size, real-time cell indices, peptide 2.5 uM (10 μg/ml)): without effect

APELIN-13
effect on hESCs (hESCs [13]): no effect on hESCs

AP-ELA: mature C-terminal 32-mer of ELA cloned in frame with alkaline phosphatase, secreted from 293T cells
binding of AP-ELA to aplnrb^grinch (aplnrb^grinch (W90L)): unable to bind AP-ELA | cell-surface binding of AP-ELA to aplnra (zebrafish aplnra): sufficient to afford cell-surface binding | cell-surface binding of AP-ELA to aplnrb (zebrafish aplnrb): sufficient to afford cell-surface binding | binding of AP-ELA to hESCs (hESCs [14]): readily bind

From US9902761B2, “Polypeptides, nucleic acids and uses thereof” (AGENCY FOR SCIENCE, TECHNOLOGY AND RESEARCH, priority 2013, dated 2018)
